Patent publication US9695155B2, “Herbicidal substituted pyrimidinyloxy benzene compounds” (E. I. DU PONT DE NEMOURS AND COMPANY, priority 2013, dated 2017)

How the values were obtained:
canarygrass = assay: Test D preemergence; assay type: in vivo, Phalaris minor; conditions: Phalaris minor, pre-emergence
In short: (§1)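 Values are 0–100 visual control ratings (0 none, 100 complete) given 7–21 days after application. Soil for preemergence was silt loam; postemergence plants stood 2–18 cm tall.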

galium = assay: Test D preemergence; assay type: in vivo, Galium aparine; conditions: Galium, pre-emergence
In short: as §1

bromegrass, downy = assay: Test D preemergence; assay type: in vivo, Bromus tectorum; conditions: Bromus tectorum, pre-emergence
In short: as §1

lambsquarters = assay: Test D preemergence; assay type: in vivo, Chenopodium album; conditions: Chenopodium album, pre-emergence
In short: as §1

wild mustard = assay: Test D preemergence; assay type: in vivo, Sinapis arvensis; conditions: Brassica, pre-emergence
In short: as §1

windgrass = assay: Test D preemergence; assay type: in vivo, Apera spica-venti; conditions: Apera spica-venti, pre-emergence
In short: as §1

kochia = assay: Test D postemergence; assay type: in vivo, Kochia scoparia; conditions: Bassia scoparia, post-emergence
In short: as §1

speedwell = assay: Test D postemergence; assay type: in vivo, Veronica persica; conditions: Veronica persica, post-emergence
In short: as §1

spring wheat = assay: Test D postemergence; assay type: in vivo, Triticum aestivum; conditions: Triticum aestivum, post-emergence
In short: as §1

winter wheat = assay: Test D postemergence; assay type: in vivo, Triticum aestivum; conditions: Triticum aestivum, post-emergence
In short: as §1

corn = assay: Test E postemergence; assay type: in vivo, Zea mays; conditions: Zea mays, post-emergence
In short: (§2)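 Test chemicals formulated in a non-phytotoxic solvent mixture containing a surfactant were applied preemergence to seeds in silt loam soil or postemergence to plants at the 1- to 4-leaf stage in potting mix. After 14 to 21 days in a greenhouse, injury was visually rated against controls on a 0-100 scale (0 = no effect, 100 = complete control).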

wild poinsettia = assay: Test E postemergence; assay type: in vivo, Euphorbia heterophylla; conditions: Euphorbia heterophylla, post-emergence, read-out: Plant response rating, Poinsettia, Wild
In short: as §2

arrowleaf sida = assay: Test E postemergence; assay type: in vivo, Sida rhombifolia; conditions: Sida rhombifolia, post-emergence, read-out: Plant response rating, Arrowleaf Sida
In short: as §2

dayflower = assay: Test E postemergence; assay type: in vivo, Commelina virginica; conditions: Commelina virginica, post-emergence, read-out: Plant response rating, Dayflower, VA
In short: as §2

[1] = Postemergence, 31 g ai/ha, scale 0 to 100
[2] = Postemergence, 62 g ai/ha, scale 0 to 100
[3] = Postemergence, 125 g ai/ha, scale 0 to 100
[4] = postemergence, 8 g ai/ha, scale 0 to 100, 0 no effect, 100 complete control
[5] = postemergence, 16 g ai/ha, scale 0 to 100, 0 no effect, 100 complete control

With `Clc1cnc(Oc2ccccc2-n2cc(Br)cn2)nc1` [Compound 7, 2-[2-(4-bromo-1H-pyrazol-1-yl)phenoxy]-5-chloropyrimidine] the pest or weed control at 16 g/ha (canarygrass; 16 g ai/ha, scale 0 (no effect) to 100 (complete control), read-out: Plant response rating, Canarygrass) was 0%, the pest or weed control at 31 g/ha (canarygrass; 31 g ai/ha, scale 0-100, read-out: Plant response rating, Canarygrass) was 0% and the pest or weed control at 62 g/ha (canarygrass; 62 g ai/ha, scale 0-100, read-out: Plant response rating, Canarygrass) was 0%. The pest or weed control at 125 g/ha (canarygrass; 125 g ai/ha, scale 0-100, read-out: Plant response rating, Canarygrass) was 0%, the pest or weed control at 250 g/ha (canarygrass; 250 g ai/ha, scale 0-100, read-out: Plant response rating, Canarygrass) was 25% and the pest or weed control at 16 g/ha (galium; 16 g ai/ha, scale 0 (no effect) to 100 (complete control), read-out: Plant response rating, Galium) was 0%. The pest or weed control at 31 g/ha (galium; 31 g ai/ha, scale 0-100, read-out: Plant response rating, Galium) was 0%, the pest or weed control at 62 g/ha (galium; 62 g ai/ha, scale 0-100, read-out: Plant response rating, Galium) was 20% and the pest or weed control at 125 g/ha (galium; 125 g ai/ha, scale 0-100, read-out: Plant response rating, Galium) was 30%. It also gave a pest or weed control at 250 g/ha (galium; 250 g ai/ha, scale 0-100, read-out: Plant response rating, Galium) of 40%, a pest or weed control at 16 g/ha (bromegrass, downy; 16 g ai/ha, scale 0 (no effect) to 100 (complete control), read-out: Plant response rating, Bromegrass, Downy) of 0% and a pest or weed control at 31 g/ha (bromegrass, downy; 31 g ai/ha, scale 0-100, read-out: Plant response rating, Bromegrass, Downy) of 0%. It also gave a pest or weed control at 62 g/ha (bromegrass, downy; 62 g ai/ha, scale 0-100, read-out: Plant response rating, Bromegrass, Downy) of 0%, a pest or weed control at 125 g/ha (bromegrass, downy; 125 g ai/ha, scale 0-100, read-out: Plant response rating, Bromegrass, Downy) of 0% and a pest or weed control at 250 g/ha (bromegrass, downy; 250 g ai/ha, scale 0-100, read-out: Plant response rating, Bromegrass, Downy) of 0%. The pest or weed control at 16 g/ha (lambsquarters; 16 g ai/ha, scale 0 (no effect) to 100 (complete control), read-out: Plant response rating, Lambsquarters) was 0%, the pest or weed control at 31 g/ha (lambsquarters; 31 g ai/ha, scale 0-100, read-out: Plant response rating, Lambsquarters) was 0% and the pest or weed control at 62 g/ha (lambsquarters; 62 g ai/ha, scale 0-100, read-out: Plant response rating, Lambsquarters) was 30%. It also gave a pest or weed control at 125 g/ha (lambsquarters; 125 g ai/ha, scale 0-100, read-out: Plant response rating, Lambsquarters) of 40%, a pest or weed control at 250 g/ha (lambsquarters; 250 g ai/ha, scale 0-100, read-out: Plant response rating, Lambsquarters) of 60% and a pest or weed control at 16 g/ha (wild mustard; 16 g ai/ha, scale 0 (no effect) to 100 (complete control), read-out: Plant response rating, Mustard, Wild) of 20%. It also gave a pest or weed control at 31 g/ha (wild mustard; 31 g ai/ha, scale 0-100, read-out: Plant response rating, Mustard, Wild) of 20%, a pest or weed control at 62 g/ha (wild mustard; 62 g ai/ha, scale 0-100, read-out: Plant response rating, Mustard, Wild) of 80% and a pest or weed control at 125 g/ha (wild mustard; 125 g ai/ha, scale 0-100, read-out: Plant response rating, Mustard, Wild) of 90%. It also gave a pest or weed control at 250 g/ha (wild mustard; 250 g ai/ha, scale 0-100, read-out: Plant response rating, Mustard, Wild) of 100%, a pest or weed control at 16 g/ha (windgrass; 16 g ai/ha, scale 0 (no effect) to 100 (complete control), read-out: Plant response rating, Windgrass) of 0% and a pest or weed control at 31 g/ha (windgrass; 31 g ai/ha, scale 0 (no effect) to 100 (complete control), read-out: Plant response rating, Windgrass) of 0%. The pest or weed control at 62 g/ha (windgrass; 62 g ai/ha, scale 0-100, read-out: Plant response rating, Windgrass) was 0%, the pest or weed control at 125 g/ha (windgrass; 125 g ai/ha, scale 0-100, read-out: Plant response rating, Windgrass) was 0% and the pest or weed control at 250 g/ha (windgrass; 250 g ai/ha, scale 0-100, read-out: Plant response rating, Windgrass) was 30%. It also gave a pest or weed control at 16 g/ha (kochia; 16 g ai/ha, scale 0-100, read-out: Plant response rating, Kochia) of 30%, a pest or weed control at 31 g/ha (kochia; 31 g ai/ha, scale 0 to 100 (0 no effect, 100 complete control), read-out: Plant response rating, Kochia) of 70% and a pest or weed control at 62 g/ha (kochia; 62 g ai/ha, scale 0 to 100 (0 no effect, 100 complete control), read-out: Plant response rating, Kochia) of 100%. The pest or weed control at 125 g/ha (kochia; 125 g ai/ha, scale 0 to 100 (0 no effect, 100 complete control), read-out: Plant response rating, Kochia) was 100%, the pest or weed control at 250 g/ha (kochia; 250 g ai/ha, scale 0 to 100 (0 no effect, 100 complete control), read-out: Plant response rating, Kochia) was 100% and the pest or weed control at 16 g/ha (speedwell; 16 g ai/ha, scale 0-100, read-out: Plant response rating, Speedwell) was 30%. For the same compound, the pest or weed control at 31 g/ha (speedwell; 31 g ai/ha, scale 0 to 100 (0 no effect, 100 complete control), read-out: Plant response rating, Speedwell) was 70%, the pest or weed control at 62 g/ha (speedwell; 62 g ai/ha, scale 0 to 100 (0 no effect, 100 complete control), read-out: Plant response rating, Speedwell) was 100% and the pest or weed control at 125 g/ha (speedwell; 125 g ai/ha, scale 0 to 100 (0 no effect, 100 complete control), read-out: Plant response rating, Speedwell) was 100%. For the same compound, the pest or weed control at 250 g/ha (speedwell; 250 g ai/ha, scale 0 to 100 (0 no effect, 100 complete control), read-out: Plant response rating, Speedwell) was 100%, the plant injury at 16 g/ha (spring wheat; 16 g ai/ha, scale 0-100, read-out: Plant response rating, Wheat, Spring) was 0% and the plant injury at 31 g/ha (spring wheat; 31 g ai/ha, scale 0 to 100 (0 no effect, 100 complete control), read-out: Plant response rating, Wheat, Spring) was 0%. The plant injury at 62 g/ha (spring wheat; 62 g ai/ha, scale 0 to 100 (0 no effect, 100 complete control), read-out: Plant response rating, Wheat, Spring) was 0%, the plant injury at 125 g/ha (spring wheat; 125 g ai/ha, scale 0 to 100 (0 no effect, 100 complete control), read-out: Plant response rating, Wheat, Spring) was 10% and the plant injury at 250 g/ha (spring wheat; 250 g ai/ha, scale 0 to 100 (0 no effect, 100 complete control), read-out: Plant response rating, Wheat, Spring) was 10%. The plant injury at 16 g/ha (winter wheat; 16 g ai/ha, scale 0-100, read-out: Plant response rating, Wheat, Winter) was 0%, the plant injury at 31 g/ha (winter wheat; 31 g ai/ha, scale 0 to 100 (0 no effect, 100 complete control), read-out: Plant response rating, Wheat, Winter) was 0% and the plant injury at 62 g/ha (winter wheat; 62 g ai/ha, scale 0 to 100 (0 no effect, 100 complete control), read-out: Plant response rating, Wheat, Winter) was 0%. For the same compound, the plant injury at 125 g/ha (winter wheat; 125 g ai/ha, scale 0 to 100 (0 no effect, 100 complete control), read-out: Plant response rating, Wheat, Winter) was 10%, the plant injury at 250 g/ha (winter wheat; 250 g ai/ha, scale 0 to 100 (0 no effect, 100 complete control), read-out: Plant response rating, Wheat, Winter) was 10% and the corn plant response (injury) rating, 0-100 at 31 g/ha (corn; [1]) was 0%. It also gave a corn plant response (injury) rating, 0-100 at 62 g/ha (corn; [2]) of 10%, a corn plant response (injury) rating, 0-100 at 125 g/ha (corn; [3]) of 5% and a corn plant response (injury) rating, 0-100 at 8 g/ha (corn; [4]) of 0%. The corn plant response (injury) rating, 0-100 at 16 g/ha (corn; [5]) was 0%, the pest or weed control at 31 g/ha (wild poinsettia; [1]) was 30% and the pest or weed control at 62 g/ha (wild poinsettia; [2]) was 60%. For the same compound, the pest or weed control at 125 g/ha (wild poinsettia; [3]) was 60%, the pest or weed control at 8 g/ha (wild poinsettia; [4]) was 0% and the pest or weed control at 16 g/ha (wild poinsettia; [5]) was 30%. For the same compound, the pest or weed control at 31 g/ha (arrowleaf sida; [1]) was 80%, the pest or weed control at 62 g/ha (arrowleaf sida; [2]) was 90% and the pest or weed control at 125 g/ha (arrowleaf sida; [3]) was 95%. The pest or weed control at 8 g/ha (arrowleaf sida; [4]) was 65%, the pest or weed control at 16 g/ha (arrowleaf sida; [5]) was 75% and the pest or weed control at 31 g/ha (dayflower; [1]) was 50%. It also gave a pest or weed control at 62 g/ha (dayflower; [2]) of 70%, a pest or weed control at 125 g/ha (dayflower; [3]) of 90% and a pest or weed control at 8 g/ha (dayflower; [4]) of 10%. The pest or weed control at 16 g/ha (dayflower; [5]) was 40%.
